We go through 1 compound from patent US12146871B2, “Method and device for physicochemical characterization of materials” (THE SOLUBILITY COMPANY OY, priority 2016, dated 2024).

The nature of the data set: partition coefficient from intrinsic solubility in octanol and water by image analysis of individual crystals. Type of data set: physicochemical. The settings on record: octanol and water (separate solubilities); from aqueous solubility of the unionized form (pH 2-3) and solubility in octanol. The protocol:
A solubility-pH profile was performed in aqueous buffers over the physiologically relevant range of pH 2-9. […] Additionally, using logP, pKa and pH data, the logD value was determined as a function of pH. All parameters determined using the present method correlated with theory and literature data. Thus, by only observing and characterizing one variable, i.e. the particle(s) size decrease of an individual crystal, it is possible to mine, in a high-content analysis (HCA) manner, a full physicochemical profile of six fundamental material characteristics for a material. Analysis device was constructed as a flow-through device consisting of two resistant flat metal plates. In the lower thereof a 1 mm hole was drilled as an outlet channel. The top metal plate hosted the inlet channel and was prepared with a glass window to facilitate detecting. A 0.2 μm inorganic membrane filter (Whatman nuclepore) was placed on the bottom plate and the particle(s) to be analyzed placed on top of the portion of the membrane filter being above the outlet channel. […] Equilibrium solubility, S was calculated from image analysis data based on a reorganized single-particle diffusion layer model dissolution rate equation, where S0 is the intrinsic solubility of the unionized form. Further, based on intrinsic solubility data in octanol and water the partition coefficient (logP) was determined according to, […]

For orientation: logP means a log measure of how a compound divides between an organic and an aqueous phase. Consider `COc1ccc2c(c1)c(CC(=O)O)c(C)n2C(=O)c1ccc(Cl)cc1` [indomethacin], for which the logP worked out at 4.1.
